Test results taken from patent US7956060B2, “Pyrimidine derivative compound” (Kyowa Hakko Kirin Co., Ltd., priority 2004, dated 2011).

Tested on: human acute myeloid leukemia cell line MV-4-11
Test: Cytostatic activity on leukemia cell line (WST-1 assay)
Type: cell-based
Conditions: MV-4-11 cells, test compound 10 μmol/L, 72 hours
Method: The cytostatic rate (%) of a test compound on human acute myeloid leukemia cell line MV-4-11 was determined in the following manner.
Each cell was cultured using Roswell Park Memorial Institute's Medium (RPMI) 1640 (Gibco, Catalog No. 11875-093) containing 10% fetal bovine serum (Gibco, Catalog. No. 10437-028) and 1% penicillin/streptomycin (1:1) (Gibco, Catalog No. 15140-122). Each 80 μL of the MV-4-11 cell having a concentration of 7.5×10^4 cells/mL (or K562 cell having a concentration of 2.5×10^4 cells/mL) was inoculated to wells of a TC MICROWELL 96U plate (Nalge Nunc International, Catalog No. 163320) and was cultured in a 5% carbon dioxide gas incubator at 37° C. for 4 hours. As a blank, only RPMI medium (80 μL) was added to a well. […] Then, the absorbances at 450 nm (reference wavelength: 690 nm) were determined with a microplate spectrophotometer SPECTRA max 340PC (Molecular Devices Corporation). The relative growth (%) of a well to which the test compound had been added was determined while setting the absorbance of a well to which not the test compound but DMSO alone had been added (control) at 100% and that of a well containing RPMI medium alone at 0%. The cytostatic rate (%) of the test compound was determined by subtracting the calculated relative growth from 100.

CCNc1nc(NCCc2ccncc2)ncc1-c1nnc(CN2CCN(C)CC2)o1 [Compound 4-32]
cytostatic rate MV-4-11 (%, 10 μmol/L): 99%
